What was measured:
[1] = test system: 3T3 cells (c-erbB-2 non-expressing); test: Transfection of 3T3 cells with pXL3031 luciferase plasmid; format: cell-based; conditions: 10% serum, mean of three measures
Procedure: (§1) Transfections were done using C6.5-H1, C6ML3-9 sFv′-H1, C6ML3-9 sFv′-P1 (comprising C6ML3-9 coupled to human protamine P1 peptide) and C6ML3-9 sFv′-salmon protamine (C6ML3-9-SP). Conjugates were mixed in […] with pXL3031 (pCOR Luc^+) reporter plasmid at different ratios and, after a 10 minute incubation, used to transfect c-erbB-2 expressing (3T3-HER2) or non-expressing (3T3) cell lines. Transfection were performed in the presence of 10% fetal calf serum (FCS) for 3T3-HER2, or 10% calf serum (CS) for 3T3. After 24 hours of incubation, cells were washed twice with PBS and lysed with 200 μl of cell culture lysis reagent (Promega). Luciferase expression was quantified using a luciferase assay kit (Promega) and a Lumat LB9501 luminometer (EG and G). Light emission (RLU) was normalized to the protein concentration of each sample, measured using the Pierce BCA assay. Conditions of transfection are summarized below for each experiment.
(§2) All transfections were done in the presence of 10% serum. Best transfection conditions are indicated for each compound. All complexes with sFv′ conjugates were formed in 20 mM NaCl, and all complexes with RPR120535 were formed in 20 mM NaHCO3150 mM NaCl. Values correspond to the mean of three different measures of the same assay.

[2] = test system: 3T3-HER2 cells (c-erbB-2 expressing); test: Transfection of 3T3-HER2 cells with pXL3031 luciferase plasmid; format: cell-based; conditions: for RLU/μg of cell proteins: 10% serum, mean of three measures
Procedure: as §1, §2

MCF-7 cells = test: Luciferase reporter gene delivery to erbB-2 negative control cells; format: cell-based; conditions: FIG. 19
[3] = test system: plasmid DNA (pGL-control or pXL3031); test: Gel mobility shift analysis of complex formation with plasmid DNA; format: binding; conditions: 5.8 pmole (360 ng) conjugate; FIG. 18
Procedure: The ability of the anti-erbB-2 C6ML3-9 sFv′-salmone protamine (SP) conjugates to complex with plasmid DNA was tested by a gel mobility shift analysis.
The DNA was added last, and the mixture incubated on ice for 1 to 1.5 hour (in the case of kinetics studies, incubation time was from 5 minutes to 60 minutes as indicated). 2 μl of loading buffer (50% glycerol in 1×TE with dye) was added to the 20 μl reaction. The reaction was electrophoresed on 0.8% agarose gel in 1×TAE, 150 V for about an hour at room temperature and stained with EtBr overnight.

SK-OV-3 cells [4] = test: Luciferase reporter gene delivery to erbB-2 positive cells; format: cell-based, human
Procedure: Gene delivery experiments were carried out with the anti-erbB-2 sFv′-[salmon protamine]-DNA complex (C6.5 sFv′-SP-DNA or C6ML3-9 sFv′-SP-DNA). The reporter DNA plasmid was the pGL3-control from Promega, which encodes the luciferase gene under control of the SV40 early promoter and enhancers. The erbB-2 positive cell line used in the study was SK-OV-3, a human ovarian cancer cell line. 200 ng of pGL3 reporter plasmid DNA was incubated with increasing amounts of either the sFv′-[salmon protamine] conjugates (sFv′-SP), or the sFv′ mixed with salmon protamine (SP) alone as described. Formation of the protein-DNA complex was confirmed by gel mobility shift analysis (data not shown). The mixture of protein and DNA were then incubated with SK-OV-3 cells in the absence or presence of 100 μM chloroquine. The protein-DNA mixture was removed from the cell culture after a 20 hour incubation. Cells were harvested for luciferase assays at about 40 hours post-incubation using a Dynex MLX Luminometer. The experiment data presented are an averaged data from quadruplet samples of a typical experiment.

SK-OV-3 cells [5] = test: pGeneGrip Rhodamine/GFP plasmid delivery, fluorescent microscopy, erbB-2 positive cells; format: cell-based, human; conditions: SK-OV-3, at 48 hours
Excerpt: pGeneGrip Rhodamine/GFP plasmid (Gene Therapy Systems) was used as another reporter plasmid for studying C6.5 sFv′-SP and C6ML3-9 sFv′-SP-mediated gene delivery. In this case, plasmid DNA encoding green fluorescent protein (GFP) was labeled with rhodamine, which allows one to follow internalization of the plasmid DNA as well as the expression of GFP. This reporter facilitated evaluation of the gene delivery efficiency at both DNA and protein expression levels. […] SK-OV-3 and MCF-7 cells were incubated with the protein/DNA complexes and fixed at 6, 24, 48, and 72 hours post-incubation for fluorescent microscopy. FIG. 21 represents the data from the 48 hour time point. […] The rhodamine labeled DNA could be seen inside of SK-OV-3 cells at 24 hours (data not shown). However, the GFP gene expression, was very low, about 1-2% cells being GFP positive in the case of C6ML3-9 sFv′-SP-mediated delivery at 48 hours. It should be noted that, although low, GFP expression level still correlates with the amount of DNA inside of the cells (FIG. 21, compare C6.5 sFv′-SP-DNA with that C6ML3-9 sFv′-SP-DNA). […] The low expression of GFP may be caused by the difficulty of plasmid DNA either escaping from the endosomes or reaching the nucleus.

[6] = 3T3-HER2, 7 μg/μg of DNA, no chloroquine

Molecule: CCCCCCCCCCCCCCCCCCN(CCCCCCCCCCCCCCCCCC)C(=O)CNC(=O)CNCCCNCCCCNCCCN [RPR120535, reference compound]
- RLU/μg of cell proteins ([1]; 6 nmoles/μg of DNA, no chloroquine): 26100000 RLU/μg of cell proteins
- RLU/μg of cell proteins ([2]; 3T3-HER2, 6 nmoles/μg of DNA, no chloroquine): 2980000 RLU/μg of cell proteins

Molecule: C6ML3-9 sFv′-H1: C6ML3-9 sFv′ reacted with maleimide-H1 peptide (residues 166 to 192 of human histone H1)
- RLU/μg of cell proteins ([1]; 7 μg/μg of DNA, no chloroquine): 0 (±0) RLU/μg of cell proteins
- RLU/μg of cell proteins [2, 6]: 27400 (±6030) RLU/μg of cell proteins
- increase in transfection efficiency ([2]; 3T3-HER2, increasing conjugate to DNA mass ratio from 4 to 10, FIG. 26): 10 fold
- transfection activity on addition of free C6ML3-9 sFv′ or C6ML3-9 sFv′-H1 complexed to pBks plasmid ([2]; competition, specificity of gene transfer, FIG. 25): could be reduced

Molecule: C6ML3-9 sFv′-P1: C6ML3-9 coupled to human protamine P1 peptide (residues 11 to 28)
- RLU/μg of cell proteins ([1]; 6 μg/μg of DNA, 150 μM chloroquine): 9 (±15) RLU/μg of cell proteins
- RLU/μg of cell proteins ([2]; 3T3-HER2, 6 μg/μg of DNA, 150 μM chloroquine): 10024 (±3757) RLU/μg of cell proteins

Molecule: C6ML3-9 sFv′-SP: C6ML3-9 sFv′ coupled via Sulfo-SMCC at its C-terminal sulfhydryl to salmon protamine
- luciferase activity in MCF-7 cells (erbB-2 negative control) (MCF-7 cells): minimal luciferase activity
- time in which the conjugate-DNA complex could form [3]: 5 min
- RLU/μg of cell proteins ([1]; 4 μg/μg of DNA, 200 μM chloroquine): 1080 (±715) RLU/μg of cell proteins
- RLU/μg of cell proteins ([2]; 3T3-HER2, 4 μg/μg of DNA, 200 μM chloroquine): 220000 (±20000) RLU/μg of cell proteins
- luciferase gene delivery to SK-OV-3 cells (SK-OV-3 cells [4]; 200 ng pGL3-control plasmid, 20 hour incubation, luciferase assay about 40 hours post-incubation, FIG. 19): delivered luciferase reporter plasmids into SK-OV-3 cells
- chloroquine dependence of luciferase gene delivery to SK-OV-3 cells (SK-OV-3 cells [4]; absence or presence of 100 μM chloroquine, FIG. 20): chloroquine-dependent
- luciferase gene delivery to SK-OV-3 cells after pre-incubating the cells with free C6ML3-9 sFv′ (SK-OV-3 cells [4]; competition, data not shown): could be competed away
- cells being GFP positive (GFP gene expression) (SK-OV-3 cells [5]): 1-2%

B1: C6.5-H1: C6.5 sFv′ conjugated to the human histone H1 peptide (conjugate)
scFv: QVQLLQSGAELKKPGESLKISCKGSGYSFTSYWIAWVRQMPGKGLEYMGLIYPGDSDTKYSPSFQGQVTISVDKSVSTAYLQWSSLKPSDSAVYFCARHDVGYCSSSNCAKWPEYFQHWGQGTLVTVSSGGGGSGGGGSGGGGSQSVLTQPPSVSAAPGQKVTISCSGSSSNIGNNYVSWYQQLPGTAPKLLIYGHTNRPAGVPDRFSGSKSGTSASLAISGFRSEDEADYYCAAWDDSLSGWVFGGGTKLTVLGHHHHHHGGGGC
peptide: AKKAKSPKKAKAAKPKKAPKSPAKAK
- RLU/μg of cell proteins ([1]; 7 μg/μg of DNA, no chloroquine): 6 (±7) RLU/μg of cell proteins
- RLU/μg of cell proteins [2, 6]: 659 (±240) RLU/μg of cell proteins
